Earlier results as cited in patent US6462083B1, “Suppository base” (priority 2001, dated 2002).

Test system: blood flow to the site of administration
Conditions: laser Doppler imaging; no species, dose or data printed

CCCCCCCC/C=C\CCCCCCCCCCCC(=O)O [Erucic acid, (Z)-13-Docosenoic acid]
blood flow to the site of administration: enhance blood flow to the site of administration
